According to publication PMC11095988, “The Molecular Mechanism of FABP4 Inhibition Effects of GAS and 4-HBA in Gastrodia elata Blume Was Discussed Based on NMR and Molecular Docking” (Journal of Analytical Methods in Chemistry, 2024):
One block for each molecule: values may come before it.

How the values were obtained:
[1] = biological target: T1, FABP4 (Homo sapiens, UniProt P15090); assay: fluorescence displacement; STD-NMR (weak signal) and ligand-observed 1H-NMR; type: binding
T1 sequence (P15090 2-132): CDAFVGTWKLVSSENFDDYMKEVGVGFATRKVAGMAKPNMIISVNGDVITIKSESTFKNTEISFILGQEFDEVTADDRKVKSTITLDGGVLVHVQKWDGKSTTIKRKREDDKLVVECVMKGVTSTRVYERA

[2] = biological target: T1, FABP4; assay: fluorescence displacement; STD-NMR and ligand-observed 1H-NMR; type: binding
[3] = biological target: T1, FABP4; assay: fluorescent probe, emission shift on binding to FABP4

IC50 [1]: 50.5 µM
SMILES: OCc1ccc(O)cc1 [4-HBA, 4-hydroxybenzyl alcohol]

SMILES: OCc1ccc(O[C@@H]2O[C@H](CO)[C@@H](O)[C@H](O)[C@H]2O)cc1 [GAS, gastrodin]
IC50 [2]: 29.8 µM

SMILES: O=S(=O)(O)c1cccc2cccc(Nc3ccccc3)c12 [1,8-ANS, 8-anilino-1-naphthalenesulfonic acid]
fluorescent probe, emission shift on binding to FABP4 [3]: When ANS binds to FABP4, its maximum emission light will be blue-shifted
